In patent publication US9393221B2, “Methods and compounds for reducing intracellular lipid storage” (THE GENERAL HOSPITAL CORPORATION, priority 2011, dated 2016):
Where a name gives a salt, the structure may show the parent alone.

Test system: ATGL-KO iPSCs
Assay: High throughput iPSC chemical screening, Oil Red O (ORO) lipid accumulation; also: test concentration or dose not given here
Format: cell-based, mouse
Details: normalized ORO level vs DMSO-treated cells; compound present during 7 days differentiation, 96-well; negative = decrease in lipid accumulation

| SMILES | Z-score |
| --- | --- |
| Nc1nc(N)c2nc(-c3ccccc3)c(N)nc2n1 [Triamterene] | −1.3039 |
| CC1(C)S[C@@H]2[C@H](NC(=O)Cc3ccccc3)C(=O)N2[C@H]1C(=O)O [Benzylpenicillin sodium] | −0.794 |
| C[C@@H]1C[C@@H]([C@H](O)CC2CC(=O)NC(=O)C2)C(=O)[C@@H](C)C1 [Cycloheximide] | 56.1385 |
| CCC1(c2ccccc2)C(=O)NCNC1=O [Primidone] | −0.0045 |
| C[C@]12CC[C@H](O)C[C@H]1CC[C@@H]1[C@@H]2CC[C@]2(C)[C@@H](C3=CC(=O)OC3)CC[C@]12O [Digitoxigenin] | −0.9264 |
| CC(C)NCC(O)c1ccc(O)c(O)c1.Cl (single isomer, unassigned; (-)) [(−)-Isoproterenol hydrochloride] | 4.267 |
| CC[N+](CC)(CC(=O)Nc1c(C)cccc1C)Cc1ccccc1 [Denatonium benzoate] | −0.1971 |
| NC(N)=NOCC[C@H](N)C(=O)O.O.O=S(=O)(O)O [Canavanine sulfate monohydrate (L,+)] | −0.5687 |
| CN1CCC(=C2c3ccccc3C=Cc3ccccc32)CC1 [Cyproheptadine hydrochloride] | −1.6013 |
| Cl.Cl.OCCN1CCN(CC/C=C2/c3ccccc3Sc3ccc(C(F)(F)F)cc32)CC1 [Flupentixol dihydrochloride cis-(Z)] | −0.5309 |
| CC#C[C@]1(O)CC[C@H]2[C@@H]3CCC4=CC(=O)CCC4=C3[C@@H](c3ccc(N(C)C)cc3)C[C@@]21C [Mifepristone] | −0.6348 |
| CO[C@H]1/C=C/O[C@@]2(C)Oc3c(C)c(O)c4c(O)c(c(/C=N/N5CCN(C)CC5)c(O)c4c3C2=O)NC(=O)/C(C)=C\C=C\[C@H](C)[C@H](O)[C@@H](C)[C@@H](O)[C@@H](C)[C@H](OC(C)=O)[C@@H]1C [Rifampicin] | −0.5227 |
| CC[C@]12CCCN3CCc4c(n(c5ccccc45)[C@](O)(C(=O)OC)C1)[C@@H]32 [Epivincamine] | 0.1161 |
| CC1(C)S[C@@H]2[C@H](NC(=O)[C@H](N)c3ccccc3)C(=O)N2[C@H]1C(=O)OC1OC(=O)c2ccccc21 (some centres unmarked) [Talampicillin hydrochloride] | −0.9508 |
| Cc1ncc([N+](=O)[O-])n1CCO [Metronidazole] | 0.716 |
| OC(CCCN1CCCCC1)(c1ccccc1)c1ccccc1 [Diphenidol hydrochloride] | −0.7294 |
| C=C1c2c(Cl)ccc(O)c2C(=O)C2=C(O)[C@]3(O)C(=O)C(C(N)=O)=C(O)[C@@H](N(C)C)[C@@H]3[C@@H](O)[C@H]12.O=C(O)c1cc(S(=O)(=O)O)ccc1O [Meclocycline sulfosalicylate] | 8.326 |
| N[C@H]1CONC1=O [(S)-(−)-Cycloserine] | −0.4402 |

| SMILES | Z-score |
| --- | --- |
| CCN1CCN(C(=O)N[C@@H](C(=O)N[C@@H]2C(=O)N3[C@@H]2SC(C)(C)[C@@H]3C(=O)O)c2ccccc2)C(=O)C1=O [Piperacillin sodium salt] | −0.9149 |
| CN(C)CCCOc1nn(Cc2ccccc2)c2ccccc12 [Benzydamine hydrochloride] | −0.3467 |
| COc1ccc2c(c1OC)CN1CCc3cc4c(cc3C1C2)OCO4 (centres unmarked) [(d,l)-Tetrahydroberberine] | 3.2577 |
| COC(=O)Nc1nc2ccc(Sc3ccccc3)cc2[nH]1 [Fenbendazole] | 16.3822 |
| CC(=O)OCC(=O)[C@@]12OC(C)(C)O[C@@H]1C[C@H]1[C@@H]3C[C@H](F)C4=CC(=O)C=C[C@]4(C)[C@@]3(F)[C@@H](O)C[C@@]12C [Fluocinonide] | 0.3846 |
| O=C(OCC(O)CO)c1ccccc1Nc1ccnc2cc(Cl)ccc12 (centres unmarked) [Glafenine hydrochloride] | −0.4014 |
| CCCCCCCCCCCCCCCC[N+](C)(C)CCN(Cc1ccc(OC)cc1)c1ncccn1 [Thonzonium bromide] | 2.814 |
| CCN1CCN(C(=O)N[C@@H](C(=O)N[C@@H]2C(=O)N3C(C(=O)O)=C(CSc4nnnn4C)CS[C@H]23)c2ccc(O)cc2)C(=O)C1=O [Cefoperazone dihydrate] | 0.4847 |
| C=C1C[C@]23C[C@@]1(O)CC[C@H]2[C@@]12C=C[C@H](O)[C@@](C)(C(=O)O1)[C@H]2[C@@H]3C(=O)O [Gibberellic acid] | 0.8089 |
| CC[C@H](CC[C@@H](C)[C@H]1CC[C@H]2[C@@H]3CC=C4C[C@@H](O)CC[C@]4(C)[C@H]3CC[C@]12C)C(C)C [Beta-sistosterol] | −0.8867 |
| C#C[C@]1(O)CC[C@H]2[C@@H]3CCC4=CC(=O)CC[C@]4(C)[C@H]3CC[C@@]21C [Ethisterone] | −0.2541 |
| O=C1CC[C@@]2(O)[C@H]3Cc4ccc(O)c5c4[C@@]2(CCN3CC2CC2)[C@H]1O5 [Naltrexone hydrochloride dihydrate] | −0.609 |
| Cc1cc2c(cc1S(N)(=O)=O)S(=O)(=O)CCC2 [Meticrane] | −0.0455 |
| CCCCc1cc2ccccc2c(OCCN(C)C)n1 [Dimethisoquin hydrochloride] | 0.4631 |
| NCCc1c[nH]c2ccc(O)cc12 [Serotonin hydrochloride] | −0.8664 |
| COc1c2c(nc3ccccc13)OC(C(C)(O)CO)C2 (centres unmarked) [Dubinidine] | 0.2385 |
| O=c1c(O)c(-c2cc(O)c(O)c(O)c2)oc2cc(O)cc(O)c12 [Myricetin] | 27.33 |
